Assay results published in paper PMC5642271 (American journal of veterinary research, 2016).
Entries after “also recorded” stand apart in the source; their conditions may differ. Read-outs that look alike come from different tables or passages of the source.

Legend:
[1] = Pharmacokinetics of rapamycin in blood after a single oral dose; format: in vivo, dogs; conditions: experiment 1: 0.1 mg/kg PO once
[2] = Pharmacokinetics of rapamycin in blood after oral dosing once daily for 5 days; format: in vivo, dogs
healthy dogs = experiment: Monitoring of adverse effects in healthy dogs during the study; format: in vivo; conditions: 0.1 mg/kg PO once (experiment 1) and once daily for 5 days (experiment 2), vomiting between 3 and 5 hours after administration on day 4 of experiment 2
mTOR pathway = conditions: IM 0.01 to 0.08 mg/kg, peripheral blood mononuclear cells and tumor biopsy specimens, each dose cohort; cited from earlier work
[3] = system: canine osteosarcoma and malignant melanoma cell lines; conditions: immortalized canine cell lines; cited from earlier work
[4] = blood samples stored frozen at −80°C for 90 days and subsequently thawed; cited from earlier work
[5] = system: dogs with experimental renal allografts; conditions: cited from earlier work
dogs with osteosarcoma = conditions: cited from earlier work
[6] = compartmental NME analysis, 5 dogs
[7] = experiment 2, day 5 of 0.1 mg/kg PO once daily, compartmental NME analysis
[8] = experiment 2: 0.1 mg/kg PO once daily for 5 days, compartmental NME analysis, value before the change on day 5, mean for 4 dogs
[9] = experiment 2: 0.1 mg/kg PO once daily for 5 days, whole blood, mean of n = 4, SD

CO[C@H]1C[C@@H]2CC[C@@H](C)[C@@](O)(O2)C(=O)C(=O)N2CCCC[C@H]2C(=O)O[C@H]([C@H](C)C[C@@H]2CC[C@@H](O)[C@H](OC)C2)CC(=O)[C@H](C)/C=C(\C)[C@@H](O)[C@@H](OC)C(=O)[C@H](C)C[C@H](C)/C=C/C=C/C=C/1C [rapamycin, Rapamycin]
V1/f, volume of the central compartment after oral administration, mean estimate [1, 6]: 6.74 L/kg | V2/f, volume of the peripheral compartment after oral administration, mean estimate [1, 6]: 18.1 L/kg | ka, absorption rate constant, mean estimate [1, 6]: 0.358 h⁻¹ | Cmax (mean ± SD) ([1]; whole blood, mean of n = 5, SD): 8.39 ± 1.73 ng/mL | Tmax (mean ± SD) ([1]; whole blood, mean of n = 5, SD): 3.3 ± 2.5 h | concentration 48 hours after drug administration (mean ± SD) ([1]; whole blood, mean of n = 5, SD): 1.38 ± 0.45 ng/mL | t1/2, terminal half-life (mean ± SD) ([1]; whole blood, noncompartmental, mean of n = 5, SD): 38.7 ± 12.7 h | mean V1/f on the last day (day 5) of administration [2, 7]: 16.8 L/kg | mean ka on the last day (day 5) of administration [2, 7]: 2.17 h⁻¹ | V2/f, volume of the peripheral compartment after oral administration, mean estimate ([2]; experiment 2: 0.1 mg/kg PO once daily for 5 days, compartmental NME analysis, mean for 4 dogs): 22.1 L/kg | V1/f, volume of the central compartment after oral administration, mean estimate [2, 8]: 4.53 L/kg | ka, absorption rate constant, mean estimate [2, 8]: 0.294 h⁻¹ | Tmax (mean ± SD) ([2]; experiment 2: 0.1 mg/kg PO once daily for 5 days, mean of n = 4, SD): 4.5 ± 1.0 h | Cmax (mean ± SD) [2, 9]: 5.49 ± 1.99 ng/mL | concentration 48 hours after drug administration (mean ± SD) [2, 9]: 1.70 ± 0.40 ng/mL | Parameter characterizing the change in ka on the last day (day 5) of rapamycin administration in experiment 2 ([2]; βOCC2 of the NME model, θμD5 = θμD1−4e^βOCC2, P = 0.002): 2.0 | Parameter characterizing the change in V1/f on the last day (day 5) of rapamycin administration in experiment 2 ([2]; βOCC2 of the NME model, P = 0.002): 1.31 | adverse effects observed (healthy dogs): None of the dogs had a substantial change in energy level, appetite, water intake, urination, or defecation; also recorded: One dog vomited once; also recorded: No other adverse effects were observed | modulation of the mTOR pathway (mTOR pathway): modulation of the mTOR pathway was detected | viable tumor cells after exposure to rapamycin [3]: significant, dose-dependent decrease in viable tumor cells | rapamycin concentration in stored blood samples (stability) [4]: not substantially affected | prevention of renal allograft rejection ([5]; 0.05 mg/kg, IV): did not provide sufficient immunosuppression to prevent rejection of the renal allograft | prevention of renal allograft rejection ([5]; 0.1 mg/kg, IM q 48 h or twice weekly, in combination with cyclosporine and antilymphocyte serum): not sufficient to prevent renal allograft rejection | maximally tolerated dose (dogs with osteosarcoma; IM injection, doses ranging from 0.01 to 0.08 mg/kg): a maximally tolerated dose was not achieved | injection site reaction (dogs with osteosarcoma; dog, in vivo): sterile abscesses at the injection site
